Experimental data taken from patent US4678799A, “1,2(1,4)-dimethyl-4(2)-(2-hydroxyethyl)-5-nitro-imidazole antiprotozoal agents with reduced mutagenicity” (Merck & Co., Inc., priority 1984, dated 1987).
≈ marks a conversion by molar mass, not a printed value. Where two headings read alike, the source gives them in different places.

Legend:
G. lamblia = test: In vitro antiprotozoal activity against G. lamblia; type: cell-based; settings: Giardia duodenalis, read-out: Activity IC50 G. lamblia
From the text: (§1) Several 5-nitroimidazoles have been tested for in vitro antiprotozoal activity against T. foetus, T. vaginalis, and G. lamblia.

T. vaginalis = test: In vitro antiprotozoal activity against T. vaginalis; type: cell-based; settings: Trichomonas vaginalis, read-out: Activity IC50 T. vaginalis
From the text: as §1

T. foetus = test: In vitro antiprotozoal activity against T. foetus; type: cell-based; settings: Tritrichomonas foetus, read-out: Activity IC50 T. foetus
From the text: as §1

Mammalian rat hepatocyte = test: DNA single strand breaks in mammalian rat hepatocytes (genotoxicity); settings: % relative to parent compound not containing 4-substituent
From the text: as §1
^b Mammalian rat hepatocyte single strand DNA breaks expressed as %
relative to parent compound not containing 4substituent.

[1] = background; cited from earlier work
protozoa and bacteria = settings: U.S. Pat. No. 3,646,027; cited from earlier work
[2] = background; cited from earlier work; remark: listed apart in the source

Structure (SMILES)	IC50 (G. lamblia; in vitro, G. lamblia)	IC50 (T. vaginalis; in vitro, T. vaginalis)	IC50 (T. foetus; in vitro, T. foetus)	Extent of DNA Damage (Mammalian rat hepatocyte)	IC50 (G. lamblia)	IC50 (T. vaginalis)	mutagenicity [1]	activity against protozoa and bacteria (protozoa and bacteria)	IC50 (T. foetus)	drug residual levels [2]
Cc1nc(CCO)c([N+](=O)[O-])n1C [Compound V]	25 µg/mL (≈ 135 µM)	9 µg/mL (≈ 48.6 µM)	5.25 µg/mL (≈ 28.4 µM)	–	–	–	–	–	–	–
Cc1nc(COC(N)=O)n(C)c1[N+](=O)[O-] [III, (1,4-Dimethyl-5-nitroimidazol-2-yl)methylcarbamate]	25 µg/mL (≈ 117 µM)	1.9 µg/mL (≈ 8.87 µM)	1 µg/mL (≈ 4.67 µM)	6%	–	–	–	–	–	–
Cc1ncc([N+](=O)[O-])n1CCO [II]	2 µg/mL (≈ 11.7 µM)	0.58 µg/mL (≈ 3.39 µM)	0.43 µg/mL (≈ 2.51 µM)	100%	–	–	–	–	–	–
Cc1nc(CCO)n(C)c1[N+](=O)[O-] [IV, 1,4-Dimethyl-2-(2-hydroxyethyl)-5-nitroimidazole]	25 µg/mL (≈ 135 µM)	12.5 µg/mL (≈ 67.5 µM)	1.9 µg/mL (≈ 10.3 µM)	–	–	–	–	–	–	–
Cn1c([N+](=O)[O-])cnc1COC(N)=O [I]	–	–	–	100%	0.9 µg/mL (≈ 4.5 µM)	0.54 µg/mL (≈ 2.7 µM)	strong mutagenicity	potent	0.42 µg/mL (≈ 2.1 µM)	high drug residual levels
